Source: PMC12666239 (Chembiochem, 2025)
Values joined by “and” are separate entries in the source; they are usually repeats but may differ in a detail not shown here. Identical values can stand only once.

Target: Nsp3b^F360N/D361S (Severe acute respiratory syndrome coronavirus 2, UniProt P0DTD1, D1179S/F1178N)
Format: binding, SARS-CoV-2

Compound: N#C[C@@]1(c2ccc3c(N)ncnn23)O[C@H](COS(N)(=O)=O)[C@@H](O)[C@H]1O [compound 3]
- TΔS: ≈ 0.10 kcal mol^−1
- ΔG: −7.73 kcal mol^–1
- ΔH: −7.83 ± 0.15 and −7.83 ± 0.15 kcal mol^–1
- −TΔS: 0.104 kcal mol^–1
